Source: patent publication US20180064807A1, “NOVEL LIPIDS AND COMPOSITIONS FOR THE DELIVERY OF THERAPEUTICS” (Arbutus Biopharma Corporation, priority 2008, published 2018)

How the values were obtained:
Factor VII [1] = experiment: In vivo determination of efficacy of novel lipid formulations (FVII knockdown, ED50); set-up: species or system C57Bl/6 mice; conditions: dose resulting in a 50% reduction in plasma FVII levels compared to control animals; FVII siRNA in cationic lipid/DSPC/cholesterol/PEG-lipid 40/10/40/10; intravenous, 24 h
Experimental: Cationic lipid containing particles were made using the preformed vesicle method. Cationic lipid, DSPC, cholesterol and PEG-lipid were solubilised in ethanol at a molar ratio of 40/10/40/10, respectively. The lipid mixture was added to an aqueous buffer (50 mM citrate, pH 4) with mixing to a final ethanol and lipid concentration of 30% (vol/vol) and 6.1 mg/mL respectively and allowed to equilibrate at room temperature for 2 min before extrusion. The hydrated lipids were extruded through two stacked 80 nm pore-sized filters (Nuclepore) at 22° C. using a Lipex Extruder (Northern Lipids, Vancouver, BC) until a vesicle diameter of 70-90 nm, as determined by Nicomp analysis, was obtained. This generally required 1-3 passes.
The FVII siRNA (solubilised in a 50 mM citrate, pH 4 aqueous solution containing 30% ethanol) was added to the vesicles, pre-equilibrated to 35° C., at a rate of […] with mixing. After a final target siRNA/lipid ratio of 0.06 (wt/wt) was achieved, the mixture was incubated for a further 30 min at 35° C. to allow vesicle re-organization and encapsulation of the FVII siRNA. The ethanol was then removed and the external buffer replaced with PBS (155 mM NaCl, 3 mM Na2HPO4, 1 mM KH2PO4, pH 7.5) by either dialysis or tangential flow diafiltration. The final encapsulated siRNA-to-lipid ratio was determined after removal of unencapsulated siRNA using size-exclusion spin columns or ion exchange spin columns.
Test formulations were initially assessed for their FVII knockdown in female 7-9 week old, 15-25 g, female C57Bl/6 mice at 0.1, 0.3, 1.0 and 5.0 mg/kg with 3 mice per treatment group. All studies included animals receiving either phosphate-buffered saline (PBS, Control group) or a benchmark formulation. Formulations were diluted to the appropriate concentration in PBS immediately prior to testing. Mice were weighed and the appropriate dosing volumes calculated (10 μl/g body weight). Test and benchmark formulations as well as PBS (for Control animals) were administered intravenously via the lateral tail vein. Animals were anesthetised 24 h later with an intraperitoneal injection of Ketamine/Xylazine and 500-700 μl of blood was collected by cardiac puncture into serum separator tubes (BD Microtainer). Blood was centrifuged at 2,000×g for 10 min at 15° C. and serum was collected and stored at −70° C. until analysis. Serum samples were thawed at 37° C. for 30 min, diluted in PBS and aliquoted into 96-well assay plates. Factor VII levels were assessed using a chromogenic assay (Biophen FVII kit, Hyphen BioMed) according to manufacturer's instructions and absorbance measured in microplate reader equipped with a 405 nm wavelength filter. Plasma FVII levels were quantified and ED50s (dose resulting in a 50% reduction in plasma FVII levels compared to control animals) calculated using a standard curve generated from a pooled sample of serum from Control animals. Those formulations of interest showing high levels of FVII knockdown (ED50<<0.1 mg/kg) were re-tested in independent studies at a lower dose range to confirm potency and establish ED50.

[2] = Determination of pKa of formulated lipids (TNS fluorescence); type: physicochemical; conditions: probe 2-(p-toluidino)-6-naphthalenesulfonic acid (TNS), 1 µM final, vesicles of cationic lipid/DSPC/CH/PEG-c-DOMG 40:10:40:10, pH 2 to 11
Experimental: The pKa's of the different ionisable cationic lipids were determined essentially as described (Eastman et al 1992 Biochemistry 31:4262-4268) using the fluorescent probe 2-(p-toluidino)-6-naphthalenesulfonic acid (TNS), which is non-fluorescent in water but becomes appreciably fluorescent when bound to membranes. Vesicles composed of cationic lipid/DSPC/CH/PEG-c-DOMG (40:10:40:10 mole ratio) were diluted to 0.1 mM in buffers (130 mM NaCl, 10 mM CH3COONH4, 10 mM MES, 10 mM HEPES) of various pH's, ranging from 2 to 11. An aliquot of the TNS aqueous solution (1 μM final) was added to the diluted vesicles and after a 30 second equilibration period the fluorescent of the TNS-containing solution was measured at excitation and emission wavelengths of 321 nm and 445 nm, respectively. The pKa of the cationic lipid-containing vesicles was determined by plotting the measured fluorescence against the pH of the solutions and fitting the data to a Sigmodial curve using the commercial graphing program IgorPro.

Factor VII [3] = experiment: In vivo evaluation of FVII siRNA 1661 using cyclic cationic lipid based formulations (FVII assay); set-up: species or system rodent; conditions: lipid particles with FVII siRNA 1661
Experimental: C57BL/6 mice (Charles River Labs, MA) and Sprague-Dawley rats (Charles River Labs, MA) received either saline or siRNA in desired formulations via tail vein injection at a volume of 0.01 mL/g. At various time points post-administration, animals were anesthesized by isofluorane inhalation and blood was collected into serum separator tubes by retro orbital bleed. Serum levels of Factor VII protein were determined in samples using a chromogenic assay (Coaset Factor VII, DiaPharma Group, OH or Biophen FVII, Aniara Corporation, OH) according to manufacturer protocols. A standard curve was generated using serum collected from saline treated animals. In experiments where liver mRNA levels were assessed, at various time points post-administration, animals were sacrificed and livers were harvested and snap frozen in liquid nitrogen. Frozen liver tissue was ground into powder. Tissue lysates were prepared and liver mRNA levels of Factor VII and apoB were determined using a branched DNA assay (QuantiGene Assay, Panomics, Calif.).
The cyclic cationic lipids 506, 512 and 519-based formulations as described below were prepared, characterized and evaluated in vivo by FVII assay.

SMILES | pKa [2] | ED50 (Factor VII [1]) [mg/kg] | knockdown of FVII protein levels in vivo (Factor VII [3])
CCCCC/C=C\C/C=C\CCCCCCCCC1(CCCCCCCC/C=C\C/C=C\CCCCC)O[C@H]2C[C@H](N(C)C)C[C@H]2O1 [ALNY-100] | 6.4 | 0.3 | –
CCCCC/C=C\C/C=C\CCCCCCCCC1(CCCCCCCC/C=C\C/C=C\CCCCC)O[C@H]2C[C@@H](N(C)C)C[C@H]2O1 [ALNY-101] | 6.43 | 0.1 | –
CCCCC/C=C\C/C=C\CCCCCCCCC1(CCCCCCCC/C=C\C/C=C\CCCCC)O[C@H]2C[C@@H](N(C)C)CC[C@H]2O1 [ALNY-102] | 7.3 | 2.0 | –
CCCCC/C=C\C/C=C\CCCCCCCCC1(CCCCCCCC/C=C\C/C=C\CCCCC)O[C@H]2C[C@H](N(C)C)CC[C@H]2O1 [ALNY-103] | 6.98 | 2.5 | –
CCCCC/C=C\C/C=C\CCCCCCCCC1(CCCCCCCC/C=C\C/C=C\CCCCC)O[C@H]2CN(C)C[C@H]2O1 [ALNY-104] | 5.65 | 2.5 | –
CCCCC/C=C\C/C=C\CCCCCCCCC1(CCCCCCCC/C=C\C/C=C\CCCCC)O[C@H]2CCN(C)C[C@H]2O1 [ALNY-105] | 5.6 | 1.5 | –
CCCCC/C=C\C/C=C\CCCCCCCCC1(CCCCCCCC/C=C\C/C=C\CCCCC)O[C@H]2C[C@@H](CN(C)C)C[C@H]2O1 [ALNY-115] | – | 1.0 | –
CCCCC/C=C\C/C=C\CCCCCCCCC1(CCCCCCCC/C=C\C/C=C\CCCCC)O[C@H]2C[C@H](CN(C)C)C[C@H]2O1 [ALNY-116] | – | 1.0 | –
CCCCC/C=C\C/C=C\CCCCCCCCO[C@H]1C[C@H](N(C)C)C[C@H]1OCCCCCCCC/C=C\C/C=C\CCCCC [ALNY-117] | – | >5.0 | –
CCCCC/C=C\C/C=C\CCCCCCCCC1(CCCCCCCC/C=C\C/C=C\CCCCC)O[C@H]2CC[C@H](CN(C)C)C[C@H]2O1 [ALNY-122] | – | 0.55 | –
CCCCC/C=C\C/C=C\CCCCCCCCC1(CCCCCCCC/C=C\C/C=C\CCCCC)O[C@H]2COC(CN(C)C)[C@H]2O1 (stereo partly drawn) [ALNY-144] | – | 0.60 | –
CCCCC/C=C\C/C=C\CCCCCCCC1OC2(CCN(C)CC2)OC1CCCCCCC/C=C\C/C=C\CCCCC (stereo not drawn) [ALNY-156] | 6.08 | – | –
CCCCC/C=C\C/C=C\CCCCCCCC1OC2(CCC(N(C)C)CC2)OC1CCCCCCC/C=C\C/C=C\CCCCC (stereo not drawn) [ALNY-158] | – | 1.40 | –
CCCCC/C=C\C/C=C\CCCCCCCCC1(CCCCCCCC/C=C\C/C=C\CCCCC)O[C@@H]2CC[C@H](N(C)C)C[C@H]2O1 [ALNY-169] | – | 2.60 | –
CCCCC/C=C\C/C=C\CCCCCCCCC(CCCCCCCC/C=C\C/C=C\CCCCC)=NNCCN(C)C [ALNY-175] | – | 2.7 | –
CCCCC/C=C\C/C=C\CCCCCCCCC1(CCCCCCCC/C=C\C/C=C\CCCCC)O[C@H]2C[C@@H](N(C)C)C[C@H]2O1 [Compound 519] | – | – | almost complete knockdown

The next lines start with results.

pKa [2] | SMILES | ED50 (Factor VII [1]) [mg/kg] | knockdown of FVII protein levels in vivo (Factor VII [3])
6.85 | CCCCC/C=C\C/C=C\CCCCCCCCC1(CCCCCCCC/C=C\C/C=C\CCCCC)O[C@H]2CCN(C)CC[C@H]2O1 [ALNY-106] | 0.3 | –
6.63 | CCCCC/C=C\C/C=C\CCCCCCCCC1(CCCCCCCC/C=C\CCCCCCCC)O[C@H]2C[C@H](N(C)C)C[C@H]2O1 (stereo partly drawn) [ALNY-107] | 0.25 | –
6.55 | CCCCC/C=C\C/C=C\CCCCCCCCC1(CCCCCCCCCCCCCCCCCC)O[C@H]2C[C@H](N(C)C)C[C@H]2O1 (stereo partly drawn) [ALNY-108] | 0.75 | –
6.75 | CCCCC/C=C\C/C=C\CCCCCCCCC1(CCCCCCCCCCCC)O[C@H]2C[C@H](N(C)C)C[C@H]2O1 (stereo partly drawn) [ALNY-109] | 2.0 | –
6.5 | CCCCC/C=C\C/C=C\CCCCCCCCC1(CCCCCCCCCC)O[C@H]2C[C@H](N(C)C)C[C@H]2O1 (stereo partly drawn) [ALNY-110] | 2.0 | –
6.6 | CCCCC/C=C\C/C=C\CCCCCCCCC1(CCCCCCCC/C=C\C/C=C\CCCCC)O[C@H]2CC[C@@H](CN(C)C)C[C@H]2O1 [ALNY-121] | 0.5 | –
4.95 | CCCCC/C=C\C/C=C\CCCCCCCCC1(CCCCCCCC/C=C\C/C=C\CCCCC)OCC(CCN(C)Cc2cccnc2)O1 (stereo not drawn) [ALNY-140] | >5.0 | –
6.62 | CCCCC/C=C\C/C=C\CCCCCCCCC(CCCCCCCC/C=C\C/C=C\CCCCC)CN(C)CCN(C)C [ALNY-141] | 0.14 | –
6.53 | CCCCC/C=C\C/C=C\CCCCCCCCC1(CCCCCCCC/C=C\C/C=C\CCCCC)OCC2(CCN(C)CC2)O1 [ALNY-148] | 0.3 | –
5.81 | CCCCC/C=C\C/C=C\CCCCCCCCC(CCCCCCCC/C=C\C/C=C\CCCCC)ON=C(C)CCN(C)C [ALNY-149] | 0.1 | –
5.5 | CCCCC/C=C\C/C=C\CCCCCCCCC1(CCCCCCCC/C=C\C/C=C\CCCCC)O[C@H]2[C@@H](OC)OC(CN(C)C)[C@H]2O1 (stereo partly drawn) [ALNY-151] | >5.00 | –
6.6 | CCCCC/C=C\C/C=C\CCCCCCCC1OC(C)(CCN(C)C)OC1CCCCCCC/C=C\C/C=C\CCCCC (stereo not drawn) [ALNY-152] | 0.15 | –
5.18 | CCCCC/C=C\C/C=C\CCCCCCCCC(CCCCCCCC/C=C\C/C=C\CCCCC)SSCCN(C)C [ALNY-160] | 2.00 | –
6.49 | CCCCC/C=C\C/C=C\CCCCCCCCC(CCCCCCCC/C=C\C/C=C\CCCCC)OC(=O)NCCN(C)C [ALNY-190] | 0.47 | –
7.21 | CCCCC/C=C\C/C=C\CCCCCCCCC(CCCCCCCC/C=C\C/C=C\CCCCC)NC(=O)OCCCN(C)C [ALNY-192] | 2.1 | –
7.57 | CCCCC/C=C\C/C=C\CCCCCCCCC(CCCCCCCC/C=C\C/C=C\CCCCC)CNC(=O)OCCCN(C)C [ALNY-200] | >5.00 | –
8.02 | CCCCC/C=C\C/C=C\CCCCCCCCC(CCCCCCCC/C=C\C/C=C\CCCCC)CNC(=O)CCN(C)C [ALNY-201, 3-(dimethylamino)-N-((11Z,14Z)-2-((9Z,12Z)-octadeca-9,12-dienyl)icosa-11,14-dienyl)propanamide] | >5.0 | –
6.52 | CCCCC/C=C\C/C=C\CCCCCCCCC(CCCCCCCC/C=C\C/C=C\CCCCC)NC(=O)OCCN(C)C [ALNY-202] | 0.12 | –
7.07 | CCCCC/C=C\C/C=C\CCCCCCCCC(CCCCCCCC/C=C\C/C=C\CCCCC)CNC(=O)OCCN(C)C [ALNY-203] | 5.0 | –
